Test results published in patent publication US8796297B2, “4-substituted-2-amino-pyrimidine derivatives” (AbbVie Inc., priority 2009, dated 2014).

Key:
[1] = molecular target: T1, human histamine H3 receptor (Homo sapiens (Human), UniProt Q9Y5N1); assay: Radioligand competition binding assay, human H3 receptor; conditions: [3H]-N-α-methylhistamine competition binding
[2] = molecular target: T2, rat histamine H3 receptor (Rattus norvegicus (Rat), UniProt Q9QYN8); assay: Radioligand competition binding assay, rat H3 receptor; conditions: [3H]-N-α-methylhistamine competition binding
T2 sequence (Q9QYN8 whole entry): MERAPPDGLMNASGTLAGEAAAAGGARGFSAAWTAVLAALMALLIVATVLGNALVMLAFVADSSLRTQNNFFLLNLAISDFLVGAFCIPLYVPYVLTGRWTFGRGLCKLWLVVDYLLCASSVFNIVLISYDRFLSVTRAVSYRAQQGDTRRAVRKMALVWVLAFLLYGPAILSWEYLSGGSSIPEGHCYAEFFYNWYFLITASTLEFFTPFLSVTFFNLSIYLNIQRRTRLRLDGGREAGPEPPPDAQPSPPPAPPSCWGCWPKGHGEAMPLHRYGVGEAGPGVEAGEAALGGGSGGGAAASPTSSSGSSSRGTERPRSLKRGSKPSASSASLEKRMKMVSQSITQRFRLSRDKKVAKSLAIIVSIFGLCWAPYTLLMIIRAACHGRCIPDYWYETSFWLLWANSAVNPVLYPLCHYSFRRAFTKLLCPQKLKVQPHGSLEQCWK
Protocol: To determine the effectiveness of representative compounds of this invention as histamine-3 receptor ligands (H3 receptor ligands), the following tests were conducted according to previously described methods (see European Journal of Pharmacology 1990, 188, 219-227; Journal of Pharmacology and Experimental Therapeutics 1995, 275, 598-604; Journal of Pharmacology and Experimental Therapeutics 1996, 276, 1009-1015; and Biochemical Pharmacology 1973, 22, 3099-3108).
The rat H3 receptor was cloned and expressed in cells, and competition binding assays carried out, according to methods previously described (see Esbenshade, et al. Journal of Pharmacology and Experimental Therapeutics 2005, 313, 165-175; Esbenshade et al., Biochemical Pharmacology 2004, 68, 933-945; and Krueger, et al. Journal of Pharmacology and Experimental Therapeutics 2005, 314, 271-281). Membranes were prepared from C6 or HEK293 cells, expressing the rat histamine H3 receptor, by homogenization on ice in TE buffer (50 mM Tris-HCl buffer, pH 7.4, containing 5 mM EDTA), 1 mM benzamidine, 2 μg/ml aprotinin, 1 μg/ml leupeptin, and 1 μg/ml pepstatin. The homogenate was centrifuged at 40,000 g for 20 minutes at 4° C. This step was repeated, and the resulting pellet was resuspended in TE buffer. Aliquots were frozen at −70° C. until needed. On the day of assay, membranes were thawed and diluted with TE buffer.
Membrane preparations were incubated with [^3H]-N-α-methylhistamine (0.5-1.0 nM) in the presence or absence of increasing concentrations of ligands for H3 receptor competition binding. The binding incubations were conducted in a final volume of 0.5 ml TE buffer at 25° C. and were terminated after 30 minutes. Thioperamide (30 μM) was used to define non-specific binding. All binding reactions were terminated by filtration under vacuum onto polyethylenimine (0.3%) presoaked Unifilters (Perkin Elmer Life Sciences) or Whatman GF/B filters followed by three brief washes with 2 ml of ice-cold TE buffer. Bound radiolabel was determined by liquid scintillation counting. For all of the radioligand competition binding assays, IC50 values and Hill slopes were determined by Hill transformation of the data and pKi values were determined by the Cheng-Prusoff equation.

[3] = molecular target: T1, human histamine H3 receptor; assay: FLIPR functional assay (Ca2+, HEK-293 cells coexpressing Gαqi5), human H3 receptor; assay type: cell-based; conditions: for EC50: FLIPR agonist potency; for Emax: HEK293, read-out: Human Maximum (%)
Text: (§1) There are many methods available to show the effectiveness of compounds as histamine H3 receptor ligands. Histamine H3 receptors from mammalian species have been cloned. Methods to clone, express, and assess the potency and functional activity of such cloned genes are well known to those skilled in the art of molecular biology. […] In the present case, to determine the potency and effectiveness of representative compounds of this invention as histamine-H3 receptor ligands (H3 receptor ligands), the following tests were conducted according to previously described methods (see Esbenshade, et al., Journal of Pharmacology and Experimental Therapeutics 2003, 305, 887-896, Esbenshade, et al., Biochemical Pharmacology 2004, 68, 933-945, and in Krueger, et al., Journal of Pharmacology and Experimental Therapeutics 2005, 314, 271-281): histamine H3 receptors were cloned and stably expressed in HEK-293 (human embryonic kidney) cells coexpressing a Gαqi5. Before testing, cells were loaded with a Ca^+2 sensitive fluorescent dye, in this case Fluo-4. For partial agonist or full agonist ligands, addition of compound to the cells led to an increase in intracellular Ca^+2 which was detected by FLIPR (Fluorescence Imaging Plate Reader; Molecular Devices, Sunnyvale, Calif.) technology. The fluorescence intensities measured before addition of the test compound were subtracted from the fluorescence intensities at later time points. Peak response values determined at each concentration of ligand were expressed as a percentage of the response obtained with a maximal concentration (1 μM) of the full agonist R-α-methyl-histamine (RAMH). Concentration versus response data were analyzed to obtain compound potency as EC50 values for full and partial agonists.

[4] = molecular target: T2, rat histamine H3 receptor; assay: FLIPR functional assay (Ca2+, HEK-293 cells coexpressing Gαqi5), rat H3 receptor; assay type: cell-based; conditions: for EC50: FLIPR agonist potency; for Rat Maximum (%): FLIPR, percentage of the response to 1 μM RAMH
Text: as §1

human H3R = human H3R (Homo sapiens (Human), UniProt Q9Y5N1); assay: GTPγS functional assay, membranes from HEK cells expressing the human H3R; assay type: biochemical; conditions: for EC50: GTPγS agonist potency
human H3R, sequence (Q9Y5N1 whole entry): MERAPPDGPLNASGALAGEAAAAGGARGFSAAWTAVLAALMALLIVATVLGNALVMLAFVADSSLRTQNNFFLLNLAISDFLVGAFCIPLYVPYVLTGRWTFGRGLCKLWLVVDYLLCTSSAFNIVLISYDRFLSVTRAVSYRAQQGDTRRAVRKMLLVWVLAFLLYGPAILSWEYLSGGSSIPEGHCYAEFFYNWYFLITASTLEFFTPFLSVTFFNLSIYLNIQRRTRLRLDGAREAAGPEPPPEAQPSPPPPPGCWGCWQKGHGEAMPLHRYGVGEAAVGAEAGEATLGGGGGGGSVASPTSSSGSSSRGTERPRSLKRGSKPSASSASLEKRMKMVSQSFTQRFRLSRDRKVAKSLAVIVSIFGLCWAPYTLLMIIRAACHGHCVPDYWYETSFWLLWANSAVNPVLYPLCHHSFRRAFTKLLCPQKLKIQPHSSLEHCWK
Protocol: (§2) Membranes from HEK cells expressing the human H3R, or from C6 cells expressing the rat H3R, were prepared by homogenization in cold buffer containing 50 mM Tris-HCl (pH 7.4), 5 mM EDTA, 10 mM MgCl2, 1 mM benzamidine, 2 μg/ml aprotinin, 1 μg/ml leupeptin, and 1 μg/ml pepstatin. The homogenate was centrifuged at 40,000 g for 20 min at 4° C., and the resulting pellet was resuspended in 50 mM Tris-HCl (pH 7.4), 5 mM EDTA, and 10 mM MgCl2 and homogenized. Glycerol and bovine serum albumin were added to a final concentration of 10% glycerol and 1% bovine serum albumin. Membranes were diluted in GTPγS assay buffer (25 mM HEPES, 2.5 mM MgCl2, and 75 mM NaCl, pH 7.4) and 10 μg of membrane protein was incubated in a 96-well deep-well block in the presence of 5.0 μM unlabeled GDP, approximately 0.5 nM of [^35S]GTPγS, and increasing concentrations of test compounds. Samples were incubated at 37° C. for 5 min and the assays were terminated by the addition of cold buffer (50 mM Tris-HCl, 75 mM NaCl, and 2.5 mM MgCl2, pH 7.6) and subsequent harvesting onto a Packard Unifilter 96-well GF/B plate followed by extensive washing. Microscint 20 (PerkinElmer Life Sciences) was added to the samples, and bound [^35S]GTPγS was determined using the Topcount (Perkin Elmer Life Sciences). The percentage of [^35S]GTPγS bound in each sample was calculated as a percentage of that bound to control samples incubated in the absence of the H3R agonists (basal). Data were analyzed from experiments performed in triplicate using GraphPad Prism to obtain pEC50 values, Hill slopes, and maximal % response.

rat H3R = rat H3R (Rattus norvegicus (Rat), UniProt Q9QYN8); assay: GTPγS functional assay, membranes from C6 cells expressing the rat H3R; assay type: biochemical; conditions: for EC50: GTPγS agonist potency
rat H3R, sequence (Q9QYN8 whole entry): as the sequence (Q9QYN8 whole entry) above
Protocol: as §2

H3 receptor = H3 receptor (Mus musculus (Mouse), UniProt P58406); assay: Mouse dipsogenia model (water intake); assay type: in vivo, CD-1 mouse
H3 receptor, sequence (P58406 whole entry): as the sequence (Q9QYN8 whole entry) above, with T15A, A286T, A290G, R387H, I389V counted along it
Protocol: Intraperitoneal administration of an H3 receptor agonist such as R-alpha-methyl-histamine elicits drinking in the hydrated CD-1 mouse (Fox, G. B.; et al. Pharmacology Biochemistry and Behavior 2002, 72, 741-750). This dipsogenic response is an indication of agonist activity in vivo and can be monitored by measuring the water intake of drug-treated animals in a 30 minute period.

[5] = test system: acetic acid-induced writhing; assay: Acetic acid-induced writhing in mice; assay type: in vivo; conditions: subcutaneous dose of 300 mg/kg, 30 minutes prior to 0.9% acetic acid ip
Protocol: Intraperitoneal injection of 0.9% acetic acid induces a writhing response that is quantified by counting the number of these induced characteristic lengthwise abdominal constrictions with torso elongations in a fixed time period (Langford, D. J.; et al. Science 2006, 312, 1967-1970). Reduction of the number of writhes by a compound administered 30 minutes prior to acetic acid exposure is a measure of analgesic activity.

[6] = FLIPR, percentage of the response to 1 μM RAMH
[7] = [35S]GTPγS bound as percentage of basal

T1 sequence (Q9Y5N1 whole entry): as the sequence (Q9Y5N1 whole entry) above

Row | Ki [1] | EC50 [3] | Rat Maximum (%) [4] | Emax [3, 6] | Emax (human H3R; 5 min, [35S]GTPγS bound as percentage of basal, read-out: Human Maximum (%)) | Emax (rat H3R; 5 min, [35S]GTPγS bound as percentage of basal, read-out: Rat Maximum (%)) | effect on dipsogenic response to Example 1 (H3 receptor; ciproxifan 3 μmol/kg, ip against Example 1 240 μmol/kg) | SMILES | Ki [2] | Human Maximum (%) [3, 6] | EC50 [4] | EC50 (human H3R) | Human Maximum (%) (human H3R; [7]) | EC50 (rat H3R) | Rat Maximum (%) (rat H3R; [7]) | water intake (dipsogenic response) (H3 receptor; dose dependently at 80, 160, and 240 μmol/kg, ip, 30 minute period, hydrated CD-1 mouse) | number of writhes [5]
1 | > 363 nM | 17700 nM | 74.0% | 34.2% | – | – | – | Nc1nccc(N[C@H]2CC[C@H](N)CC2)n1 [Example 16, Trans-N^4-(4-aminocyclohexyl)pyrimidine-2,4-diamine] | – | – | – | – | – | – | – | – | –
2 | 302 nM | 254 nM | 83.0% | 41% | 122% | 123% | – | Cl.Cl.Nc1nccc(N2CCC(N)CC2)n1 [Example 20, 4-(4-aminopiperidin-1-yl)pyrimidin-2-amine dihydrochloride] | 58.9 nM | – | 51.7 nM | 1050 nM | – | 724 nM | – | – | –
3 | – | – | – | – | – | – | blocked | O=C(c1ccc(OCCCc2cnc[nH]2)cc1)C1CC1 [ciproxifan, reference compound] | – | – | – | – | – | – | – | – | –

Row | SMILES | Ki [1] | EC50 [3] | Rat Maximum (%) [4] | Emax [3, 6] | Emax (human H3R; 5 min, [35S]GTPγS bound as percentage of basal, read-out: Human Maximum (%)) | Emax (rat H3R; 5 min, [35S]GTPγS bound as percentage of basal, read-out: Rat Maximum (%)) | effect on dipsogenic response to Example 1 (H3 receptor; ciproxifan 3 μmol/kg, ip against Example 1 240 μmol/kg) | Ki [2] | Human Maximum (%) [3, 6] | EC50 [4] | EC50 (human H3R) | Human Maximum (%) (human H3R; [7]) | EC50 (rat H3R) | Rat Maximum (%) (rat H3R; [7]) | water intake (dipsogenic response) (H3 receptor; dose dependently at 80, 160, and 240 μmol/kg, ip, 30 minute period, hydrated CD-1 mouse) | number of writhes [5]
4 | NCCNc1ccnc(N)n1.O=C(O)C(O)C(O)C(=O)O [Example 1, N^4-(2-aminoethyl)pyrimidine-2,4-diamine(2R,3R)-2,3-dihydroxysuccinate] | 63.1 nM | 124 nM | 100.0% | – | – | – | – | 5.5 nM | 60.2% | 5.47 nM | 513 nM | 147% | 174 nM | 181% | induced water intake | significantly reduced
